Measured values as given in ChEMBL document CHEMBL5113419.
The source made the active and inactive calls. No cut-off for these calls is given here.

How the values were obtained:
Influenza A virus [1] = test: Antiviral activity against Influenza A virus H9N2 infected in MDCK-II cells assessed as inhibition of viral replication measured after 24 hrs by immunostaining based assay; assay type: functional, organism-based; settings: DDE = dose-dependent effect
MDCK-II = test: Cytotoxicity against MDCK-II cells assessed as reduction in cell viability at 50 uM measured for 24 hrs by Celltiter-glo luminescent assay; assay type: toxicity, cell-based, Canis lupus familiaris; settings: dog
Homo sapiens = species: Homo sapiens; test: Selectivity ratio of Ki for binding affinity to FXa (unknown origin) using Mes-DArg-Pro-Arg-AMC as substrate to Ki for binding affinity to N-terminal MRGS(His)6GSDDDDK-tagged Matriptase (unknown origin ) expressed in Escherichia coli assessed as inhibition constant using Mes-DArg-Pro-Arg-AMC as substrate
Prothrombin = Prothrombin (Bos taurus, UniProt P00735); test: Binding affinity to bovine thrombin assessed as inhibition constant using tosyl-Gly-Pro-Arg-AMC as substrate
[2] = target: T1, Suppressor of tumorigenicity 14 protein (Homo sapiens, UniProt Q9Y5Y6); test: Binding affinity to N-terminal MRGS(His)6GSDDDDK-tagged Matriptase (unknown origin) expressed in Escherichia coli assessed as inhibition constant using Mes-DArg-Pro-Arg-AMC as substrate
T1 sequence (Q9Y5Y6 whole entry): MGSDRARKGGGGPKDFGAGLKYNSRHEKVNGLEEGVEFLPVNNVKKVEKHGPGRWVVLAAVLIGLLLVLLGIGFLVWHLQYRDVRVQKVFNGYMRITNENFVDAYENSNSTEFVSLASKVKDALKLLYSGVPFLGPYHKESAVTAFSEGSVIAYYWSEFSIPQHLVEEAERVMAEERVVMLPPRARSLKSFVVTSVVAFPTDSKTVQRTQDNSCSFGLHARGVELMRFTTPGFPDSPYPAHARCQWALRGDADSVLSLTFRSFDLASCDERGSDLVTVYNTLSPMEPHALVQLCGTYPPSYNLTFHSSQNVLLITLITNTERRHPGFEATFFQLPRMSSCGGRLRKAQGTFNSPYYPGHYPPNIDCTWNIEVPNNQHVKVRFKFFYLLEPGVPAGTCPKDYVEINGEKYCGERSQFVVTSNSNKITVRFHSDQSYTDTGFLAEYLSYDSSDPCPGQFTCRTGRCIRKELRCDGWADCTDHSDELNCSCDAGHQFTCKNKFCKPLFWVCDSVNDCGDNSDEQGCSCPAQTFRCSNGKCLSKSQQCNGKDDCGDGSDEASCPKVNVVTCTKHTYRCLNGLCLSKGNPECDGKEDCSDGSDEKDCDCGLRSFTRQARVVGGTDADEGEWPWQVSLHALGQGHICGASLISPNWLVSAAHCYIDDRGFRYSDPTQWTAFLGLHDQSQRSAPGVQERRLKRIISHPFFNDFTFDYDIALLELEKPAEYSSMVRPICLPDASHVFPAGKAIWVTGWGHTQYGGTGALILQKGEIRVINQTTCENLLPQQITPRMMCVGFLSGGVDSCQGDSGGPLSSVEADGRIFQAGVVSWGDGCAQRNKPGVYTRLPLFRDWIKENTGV

Coagulation factor X = Coagulation factor X (Homo sapiens, UniProt P00742); test: Binding affinity to FXa (unknown origin) using Mes-DArg-Pro-Arg-AMC as substrate
Influenza A virus [3] = test: Antiviral activity against Influenza A virus H9N2 infected in MDCK-II cells assessed as reduction in comet-shaped foci at 20 uM measured after 24 hrs by immunostaining based assay; assay type: functional, organism-based
Influenza A virus [4] = test: Antiviral activity against Influenza A virus H9N2 infected in MDCK-II cells assessed as reduction in viral titer in supernatants at 5 to 50 uM measured after 24 hrs by plaque assay; assay type: functional, organism-based; settings: dose 5-50 µM
[5] = Selectivity ratio of Ki for binding affinity to bovine thrombin assessed as inhibition constant using tosyl-Gly-Pro-Arg-AMC as substrate to Ki for binding affinity to N-terminal MRGS(His)6GSDDDDK-tagged Matriptase (unknown origin) expressed in Escherichia coli assessed as inhibition constant using Mes-DArg-Pro-Arg-AMC as substrate; settings: Homo sapiens
Influenza A virus [6] = test: Antiviral activity against Influenza A virus H9N2 infected in MDCK-II cells assessed as reduction in comet-shaped foci at 50 uM measured after 24 hrs by immunostaining based assay; assay type: functional, organism-based
[7] = Binding affinity to bovine trypsin assessed as inhibition constant […]; design: species or system Bos taurus
Influenza A virus [8] = test: Antiviral activity against Influenza A virus H9N2 infected in MDCK-II cells assessed as inhibition of viral replication at 5 uM measured after 24 hrs by immunostaining based assay; assay type: functional, organism-based

Coagulation factor X, sequence (P00742 41-179 limits assumed): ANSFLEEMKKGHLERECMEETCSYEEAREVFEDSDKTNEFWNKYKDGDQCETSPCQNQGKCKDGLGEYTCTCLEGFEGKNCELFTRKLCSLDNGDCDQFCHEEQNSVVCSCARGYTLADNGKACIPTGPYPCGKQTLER
Coagulation factor X, sequence (P00742 235-488 limits assumed): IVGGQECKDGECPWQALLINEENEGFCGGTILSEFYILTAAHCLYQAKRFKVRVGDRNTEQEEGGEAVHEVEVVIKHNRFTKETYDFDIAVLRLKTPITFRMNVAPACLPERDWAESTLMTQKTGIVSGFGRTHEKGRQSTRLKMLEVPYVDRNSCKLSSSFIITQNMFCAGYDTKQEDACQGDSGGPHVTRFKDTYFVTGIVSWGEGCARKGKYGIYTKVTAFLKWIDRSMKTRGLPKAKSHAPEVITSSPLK

| SMILES | Activity (Influenza A virus [1]) | Activity (MDCK-II) | Ratio Ki (Homo sapiens) | Ki (Prothrombin) | Ki [2] | Ki (Coagulation factor X) | Activity (Influenza A virus [3]) | Activity (Influenza A virus [4]) | Ratio Ki [5] | Activity (Influenza A virus [6]) | Ki [7] | Activity (Influenza A virus [8]) |
| --- | --- | --- | --- | --- | --- | --- | --- | --- | --- | --- | --- | --- |
| COc1ccc(-c2cccc(S(=O)(=O)N[C@@H](Cc3cccc(C(=N)N)c3)C(=O)N3CCN(C(=O)NC4CCCCC4)CC3)c2)c(OC)c1 | Dde | Toxic | 0.3 | 912 nM | 38 nM | 10 nM | Active | Active | 24 | Active |  |  |
| COc1ccc(-c2cccc(S(=O)(=O)N[C@@H](Cc3cccc(C(=N)N)c3)C(=O)N3CCC(NC(=O)NC(C)(C)C)CC3)c2)c(OC)c1 | Dde | Toxic | 0.7 | 1800 nM | 3 nM | 2 nM | Active | Active | 600 | Active |  |  |
| COc1ccc(-c2cccc(S(=O)(=O)N[C@@H](Cc3cccc(C(=N)N)c3)C(=O)N3CCN(C(=O)OC(C)(C)C)CC3)c2)c(OC)c1 |  |  | 3.1 | 12 nM | 17 nM | 52 nM |  |  | 0.7 |  |  |  |
| COc1ccc(-c2cccc(S(=O)(=O)N[C@@H](Cc3cccc(C(=N)N)c3)C(=O)N3CCN(C(=O)C4CCCCC4)CC3)c2)c(OC)c1 |  |  | 2.2 | 414 nM | 43 nM | 95 nM |  |  | 10 |  |  |  |
| Cc1ccc(-c2cccc(S(=O)(=O)N[C@@H](Cc3cccc(C(=N)N)c3)C(=O)N3CCC(NC(=O)NC(C)(C)C)CC3)c2)cc1 |  |  | 4 | 412 nM | 7 nM | 28 nM |  |  | 59 |  |  |  |
| CC(C)(C)NC(=O)NC1CCN(C(=O)[C@H](Cc2cccc(C(=N)N)c2)NS(=O)(=O)c2cccc(-c3ccc(C(=N)N)cc3)c2)CC1 |  |  | 105 | 449 nM | 0.8 nM | 84 nM |  |  | 561 |  |  |  |
| CC(C)Oc1ccc(-c2cccc(S(=O)(=O)N[C@@H](Cc3cccc(C(=N)N)c3)C(=O)N3CCC(NC(=O)NC(C)(C)C)CC3)c2)cc1 |  |  | 9.3 | 5140 nM | 58 nM | 439 nM |  |  | 89 |  |  |  |
| CC(C)(C)NC(=O)NC1CCN(C(=O)[C@H](Cc2cccc(C(=N)N)c2)NS(=O)(=O)c2cccc(-c3cc(F)c(CO)c(F)c3)c2)CC1 |  |  | 21 | 11800 nM | 24 nM | 504 nM |  |  | 492 |  |  |  |
| CC(C)(C)NC(=O)NC1CCN(C(=O)[C@H](Cc2cccc(C(=N)N)c2)NS(=O)(=O)c2cccc(-c3ccc(Cl)cc3Cl)c2)CC1 |  |  | 0.8 | 174 nM | 5 nM | 4 nM |  |  | 35 |  |  |  |
| COc1ccc(-c2cccc(S(=O)(=O)N[C@@H](Cc3cccc(C(=N)N)c3)C(=O)N3CCN(C(=O)C(C)(C)C)CC3)c2)c(OC)c1 |  |  | 0.8 | 42 nM | 143 nM | 116 nM |  |  | 0.3 |  |  |  |
| COCc1ccc(-c2cccc(S(=O)(=O)N[C@@H](Cc3cccc(C(=N)N)c3)C(=O)N3CCC(NC(=O)NC(C)(C)C)CC3)c2)cc1 |  |  | 20 | 1790 nM | 9 nM | 179 nM |  |  | 199 |  |  |  |
| CC(C)(C)NC(=O)NC1CCN(C(=O)[C@H](Cc2cccc(C(=N)N)c2)NS(=O)(=O)c2cccc(-c3cccc(C(=N)N)c3)c2)CC1 | Dde | Toxic | 13 | 2550 nM | 0.7 nM | 9 nM | Active | Active | 3640 | Active | 5 nM | Active |
| CC(C)(C)NC(=O)NC1CCN(C(=O)[C@H](Cc2cccc(C(=N)N)c2)NS(=O)(=O)c2cccc(-c3ccc(CO)c(F)c3)c2)CC1 | Dde | Toxic | 13 | 23000 nM | 15 nM | 190 nM | Active | Active | 1530 | Active | 0.6 nM |  |
| COc1ccc(-c2cccc(S(=O)(=O)N[C@@H](Cc3cccc(C(=N)N)c3)C(=O)N3CCN(C(=O)NC(C)(C)C)CC3)c2)c(OC)c1 |  |  | 0.1 | 73 nM | 104 nM | 13 nM |  |  | 0.7 |  |  |  |
| CC(C)(C)NC(=O)NC1CCN(C(=O)[C@H](Cc2cccc(C(=N)N)c2)NS(=O)(=O)c2cccc(-c3ccc(COC(C)(C)C)cc3)c2)CC1 |  |  | 3.1 | 2520 nM | 171 nM | 529 nM |  |  | 15 |  |  |  |
| CC(C)(C)NC(=O)NC1CCN(C(=O)[C@H](Cc2cccc(C(=N)N)c2)NS(=O)(=O)c2cccc(-c3cccc(CN)c3)c2)CC1 |  |  | 0.1 | 1320 nM | 1 nM | 0.1 nM |  |  | 1320 |  |  |  |
| CC(C)(C)NC(=O)NC1CCN(C(=O)[C@H](Cc2cccc(C(=N)N)c2)NS(=O)(=O)c2cccc(-c3ccc(CO)cc3)c2)CC1 |  |  | 5.5 | 12000 nM | 11 nM | 60 nM |  |  | 1090 |  |  |  |
| CC(C)(C)NC(=O)NC1CCN(C(=O)[C@H](Cc2cccc(C(=N)N)c2)NS(=O)(=O)c2cccc(-c3ccc(CN)cc3)c2)CC1 |  |  | 2.5 | 553 nM | 4 nM | 10 nM |  |  | 138 |  |  |  |
| CC(C)(C)NC(=O)NC1CCN(C(=O)[C@H](Cc2cccc(C(=N)N)c2)NS(=O)(=O)c2cccc(-c3ccc(F)c(CO)c3)c2)CC1 |  |  | 1 | 1070 nM | 50 nM | 51 nM |  |  | 21 |  |  |  |
| CC(C)(C)NC(=O)NC1CCN(C(=O)[C@H](Cc2cccc(C(=N)N)c2)NS(=O)(=O)c2cccc(-c3cccc(CO)c3)c2)CC1 |  |  | 0.6 | 490 nM | 59 nM | 33 nM |  |  | 8.3 |  |  |  |
| COc1ccc(-c2cccc(S(=O)(=O)N[C@@H](Cc3cccc(C(=N)N)c3)C(=O)N3CCC(NC(=O)NC(C)C)CC3)c2)c(OC)c1 |  |  | 0.4 | 228 nM | 8 nM | 3 nM |  |  | 29 |  |  |  |
| CNC(=O)NC1CCN(C(=O)[C@H](Cc2cccc(C(=N)N)c2)NS(=O)(=O)c2cccc(-c3ccc(OC)cc3OC)c2)CC1 |  |  | 0.9 | 89 nM | 26 nM | 23 nM |  |  | 3.4 |  |  |  |
| CC(C)(C)NC(=O)NC1CCN(C(=O)[C@H](Cc2cccc(C(=N)N)c2)NS(=O)(=O)c2cccc(-c3ccc(N)nc3)c2)CC1 |  |  |  | 4260 nM | 3 nM | 4 nM |  |  | 1420 |  |  |  |
